Experimental data from the supplement of paper PMC13207355.

Assays:
Conditions in all cases: exposure time: 72 h
E13 [1] = patient-derived glioblastoma stem cells of classical subtype; experiment: phenotypic distance (Euclidean, principal components) from DMSO controls (arbitrary units); higher = stronger morphological change
E34 [2] = patient-derived glioblastoma stem cells of proneural subtype; experiment: as above
E31 [3] = patient-derived glioblastoma stem cells of proneural subtype; experiment: as above
FT3469 [4] = normal neural stem cell line; experiment: as above
E28 [5] = patient-derived glioblastoma stem cells of classical subtype; experiment: as above
E57 [6] = patient-derived glioblastoma stem cells of mesenchymal subtype; experiment: as above
E21 [7] = patient-derived glioblastoma stem cells of mesenchymal subtype; experiment: as above
E13 [8] = experiment: surviving fraction (nuclei count normalised to DMSO); higher = more cells surviving (less toxic)
E34 [9] = experiment: as above
E31 [10] = experiment: as above
FT3469 [11] = experiment: as above
E28 [12] = experiment: as above
E57 [13] = experiment: as above
E21 [14] = experiment: as above
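Wherever phenotypic distance (Euclidean, principal components) from DMSO controls is given: cell Painting imaging in 384-well plates, CellProfiler features reduced to at least 20 principal components, Euclidean distance versus same-plate DMSO vehicle wells (0.1% v/v), median over six images per well.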
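Wherever surviving fraction (nuclei count normalised to DMSO) is given: nuclei counted by high-content imaging of Hoechst-stained cells in laminin-coated 384-well plates, relative to 0.1% DMSO vehicle wells, with staurosporine as cell-death control.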

COC(=O)Nc1nc2cc(C(=O)c3ccc(F)cc3)ccc2[nH]1 [Flubendazol]
Conditions	phenotypic distance	surviving fraction
E13 [1], 4.1 nM	0.372	–
E13 [1], 12.3 nM	0.737	–
E13 [1], 37 nM	0.86	–
E13 [1], 111.1 nM	1.59	–
E13 [1], 333.3 nM	3.72	–
E13 [1], 1000 nM	6.11	–
E13 [1], 3000 nM	6.68	–
E13 [8], 4.1 nM	–	0.992
E13 [8], 12.3 nM	–	1.12
E13 [8], 37 nM	–	1.11
E13 [8], 111.1 nM	–	0.943
E13 [8], 333.3 nM	–	0.471
E13 [8], 1000 nM	–	0.261
E13 [8], 3000 nM	–	0.234
E21 [7], 4.1 nM	0.658	–
E21 [7], 12.3 nM	1.03	–
E21 [7], 37 nM	0.833	–
E21 [7], 111.1 nM	1.63	–
E21 [7], 333.3 nM	2.94	–
E21 [7], 1000 nM	7.4	–
E21 [7], 3000 nM	7.27	–
E21 [14], 4.1 nM	–	1.09
E21 [14], 12.3 nM	–	0.929
E21 [14], 37 nM	–	0.954
E21 [14], 111.1 nM	–	0.885
E21 [14], 333.3 nM	–	0.777
E21 [14], 1000 nM	–	0.161
E21 [14], 3000 nM	–	0.137
E28 [5], 4.1 nM	0.523	–
E28 [5], 12.3 nM	0.55	–
E28 [5], 37 nM	0.574	–
E28 [5], 111.1 nM	1.08	–
E28 [5], 333.3 nM	1.98	–
E28 [5], 1000 nM	3.45	–
E28 [5], 3000 nM	3.81	–
E28 [12], 4.1 nM	–	1.07
E28 [12], 12.3 nM	–	1.09
E28 [12], 37 nM	–	1.02
E28 [12], 111.1 nM	–	1.02
E28 [12], 333.3 nM	–	0.67
E28 [12], 1000 nM	–	0.361
E28 [12], 3000 nM	–	0.234
E31 [3], 4.1 nM	0.507	–
E31 [3], 12.3 nM	0.548	–
E31 [3], 37 nM	0.79	–
E31 [3], 111.1 nM	1.36	–
E31 [3], 333.3 nM	3.16	–
E31 [3], 1000 nM	5.22	–
E31 [3], 3000 nM	7.77	–
E31 [10], 4.1 nM	–	0.887
E31 [10], 12.3 nM	–	0.95
E31 [10], 37 nM	–	0.807
E31 [10], 111.1 nM	–	0.615
E31 [10], 333.3 nM	–	0.329
E31 [10], 1000 nM	–	0.118
E31 [10], 3000 nM	–	0.0708
E34 [2], 4.1 nM	0.541	–
E34 [2], 12.3 nM	0.863	–
E34 [2], 37 nM	0.46	–
E34 [2], 111.1 nM	1.21	–
E34 [2], 333.3 nM	1.98	–
E34 [2], 1000 nM	3.35	–
E34 [2], 3000 nM	4.79	–
E34 [9], 4.1 nM	–	1.14
E34 [9], 12.3 nM	–	0.942
E34 [9], 37 nM	–	0.985
E34 [9], 111.1 nM	–	0.904
E34 [9], 333.3 nM	–	0.661
E34 [9], 1000 nM	–	0.473
E34 [9], 3000 nM	–	0.324
E57 [6], 4.1 nM	0.67	–
E57 [6], 12.3 nM	0.423	–
E57 [6], 37 nM	0.428	–
E57 [6], 111.1 nM	1.31	–
E57 [6], 333.3 nM	2.68	–
E57 [6], 1000 nM	5.07	–
E57 [6], 3000 nM	4.95	–
E57 [13], 4.1 nM	–	0.998
E57 [13], 12.3 nM	–	0.941
E57 [13], 37 nM	–	1.06
E57 [13], 111.1 nM	–	0.996
E57 [13], 333.3 nM	–	0.739
E57 [13], 1000 nM	–	0.134
E57 [13], 3000 nM	–	0.0682
FT3469 [4], 4.1 nM	0.499	–
FT3469 [4], 12.3 nM	0.843	–
FT3469 [4], 37 nM	0.655	–
FT3469 [4], 111.1 nM	0.943	–
FT3469 [4], 333.3 nM	2.08	–
FT3469 [4], 1000 nM	3.42	–
FT3469 [4], 3000 nM	3.26	–
FT3469 [11], 4.1 nM	–	1.16
FT3469 [11], 12.3 nM	–	0.827
FT3469 [11], 37 nM	–	0.997
FT3469 [11], 111.1 nM	–	0.747
FT3469 [11], 333.3 nM	–	0.644
FT3469 [11], 1000 nM	–	0.524
FT3469 [11], 3000 nM	–	0.564
